# Measurements from the supplement of paper PMC4862054.
# Several values for one entry are separate records, joined by “and”; a condition that tells them apart may be missing. Equal values may be shown once.
# Assays:
# Conditions in all cases: incubation time: 72 h
# DU-4475 = assay: normalised viability (% of control), CellTiter-Blue; higher = more viable cells (about 100 = DMSO control)
# Protocol: (§1)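 DSRT, CellTiter-Blue viability, 72 h incubation. Signal is normalised to DMSO and benzethonium chloride controls. Value is the normalised response at dose 7.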
# CAL-148 = assay: as above
# Protocol: as §1
# CAL-51 [1] = assay: as above
# Protocol: as §1
# CAL-85-1 [2] = assay: as above
# Protocol: as §1
# HDQ-P1 [3] = assay: as above
# Protocol: as §1
# MDA-MB-453 [4] = assay: as above
# Protocol: as §1
# MDA-MB-468 = assay: normalised response (% of control), CellTiter-Glo; higher = more viable cells (100 = DMSO, 0 = benzethonium chloride kill control)
# Outline: (§2)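 Each value is the plate-normalised signal at one concentration of the series. Breast cancer cell lines (20 µl suspension) were incubated 72 h in 384-well plates with compound at 5 concentrations in 10-fold steps over a compound-specific 10,000-fold range. CellTox Green and then CellTiter-Glo were read, and each plate was scaled to 0.1 % DMSO (100) and a positive kill control (0).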
# MFM-223 = assay: as above
# Outline: as §2
# MDA-MB-436 = assay: as above
# Outline: as §2
# BT-474 = assay: as above
# Outline: as §2
# Hs578T = assay: as above
# Outline: as §2
# MCF-10A = assay: as above
# Outline: as §2
# CAL-51 [5] = assay: as above
# Outline: as §2
# HCC1143 = assay: as above
# Outline: as §2
# MDA-MB-231 = assay: as above
# Outline: as §2
# CAL-120 = assay: as above
# Outline: as §2
# BT-549 = assay: as above
# Outline: as §2
# CAL-85-1 [6] = assay: as above
# Outline: as §2
# HDQ-P1 [7] = assay: as above
# Outline: as §2
# MDA-MB-453 [8] = assay: as above
# Outline: as §2
# HCC1599 = assay: as above
# Outline: as §2
Structure (SMILES),normalised viability (DU-4475),normalised viability (CAL-148),normalised viability (CAL-51 [1]),normalised viability (CAL-85-1 [2]),normalised viability (HDQ-P1 [3]),normalised viability (MDA-MB-453 [4]),normalised response (MDA-MB-468) [%],normalised response (MFM-223) [%],normalised response (MDA-MB-436) [%],normalised response (BT-474) [%],normalised response (Hs578T) [%],normalised response (MCF-10A) [%],normalised response (CAL-51 [5]) [%],normalised response (HCC1143) [%],normalised response (MDA-MB-231) [%],normalised response (CAL-120) [%],normalised response (BT-549) [%],normalised response (CAL-85-1 [6]) [%],normalised response (HDQ-P1 [7]) [%],normalised response (MDA-MB-453 [8]) [%],normalised response (HCC1599) [%]
COc1ccc(-c2cc3c(C)nc(N)nc3n([C@H]3CC[C@H](OCCO)CC3)c2=O)cn1 (1000 nM),42.9%,18.1%,12.9%,23.1%,12.2%,7.65%,–,–,–,–,–,–,–,–,–,–,–,–,–,–,–
COc1ccc(-c2cc3c(C)nc(N)nc3n([C@H]3CC[C@H](OCCO)CC3)c2=O)cn1 (10000 nM),–,–,–,–,–,–,4.65,13,37.1,23.9,5.22,7.97,0.68,7.29,9.59,26.1,8.65,4.45,10.8,3.84,44
COc1cc(CCc2cc(NC(=O)c3ccc(N4CC(C)NC(C)C4)cc3)n[nH]2)cc(OC)c1 (stereo not drawn) [AZD4547] (100 nM),84.3%,106%,101%,74.9%,106%,78.1%,–,–,–,–,–,–,–,–,–,–,–,–,–,–,–
COc1cc(CCc2cc(NC(=O)c3ccc(N4CC(C)NC(C)C4)cc3)n[nH]2)cc(OC)c1 (stereo not drawn) [AZD4547] (1000 nM),–,–,–,–,–,–,104,53.3,98,99.6,87.6,74.9,108,96.5,103,68.2,88.7,105,93.7,85,80.9
CCC/C=C/C=C/C(=O)O[C@H]1/C(=C/C(=O)OC)C[C@H]2C[C@H]([C@@H](C)O)OC(=O)C[C@H](O)C[C@@H]3C[C@H](OC(C)=O)C(C)(C)[C@](O)(C[C@@H]4C/C(=C/C(=O)OC)C[C@H](/C=C/C(C)(C)[C@]1(O)O2)O4)O3 [Bryostatin 1] (10 nM),76.5%,98.1%,109%,98.7%,118%,92.2%,–,–,–,–,–,–,–,–,–,–,–,–,–,–,–
CCC/C=C/C=C/C(=O)O[C@H]1/C(=C/C(=O)OC)C[C@H]2C[C@H]([C@@H](C)O)OC(=O)C[C@H](O)C[C@@H]3C[C@H](OC(C)=O)C(C)(C)[C@](O)(C[C@@H]4C/C(=C/C(=O)OC)C[C@H](/C=C/C(C)(C)[C@]1(O)O2)O4)O3 [Bryostatin 1] (100 nM),–,–,–,–,–,–,98.3,104,111,81.2,88.6,95.7,96.5,94.1,93.1,104,87.9,98.5,81.5,103,86.4
CO[C@@H](C(=O)N1Cc2[nH]nc(NC(=O)c3ccc(N4CCN(C)CC4)cc3)c2C1)c1ccccc1 [Danusertib] (1000 nM),46.3%,47.2%,44.9%,50.8%,45.6%,41.7%,–,–,–,–,–,–,–,–,–,–,–,–,–,–,–
CO[C@@H](C(=O)N1Cc2[nH]nc(NC(=O)c3ccc(N4CCN(C)CC4)cc3)c2C1)c1ccccc1 [Danusertib] (10000 nM),–,–,–,–,–,–,50.1,45.6,57.5,55.5,46.1,17,31.1,47.1,42.7,22.1,14.7,67.8,44.2,95,78.5
Cc1nc(Nc2ncc(C(=O)Nc3c(C)cccc3Cl)s2)cc(N2CCN(CCO)CC2)n1 [Dasatinib] (100 nM),95.1% and 108%,109% and 93.3%,47.8% and 48.7%,56.4% and 53%,15.8% and 11.4%,88.2% and 94.5%,–,–,–,–,–,–,–,–,–,–,–,–,–,–,–
Cc1nc(Nc2ncc(C(=O)Nc3c(C)cccc3Cl)s2)cc(N2CCN(CCO)CC2)n1 [Dasatinib] (1000 nM),–,–,–,–,–,–,73.1,80.9,91.9,45.7,31.9,24.3,47.9,60.3,34.1,48.6,55.3,35.8,27.1,80.5,97.7
Cc1c(CN2CCN(C(=O)[C@H](C)O)CC2)sc2c(N3CCOCC3)nc(-c3cnc(N)nc3)nc12 [GDC-0980] (1000 nM),50.2%,15.3%,16.5%,27.1%,24.7%,8.12%,–,–,–,–,–,–,–,–,–,–,–,–,–,–,–
Cc1c(CN2CCN(C(=O)[C@H](C)O)CC2)sc2c(N3CCOCC3)nc(-c3cnc(N)nc3)nc12 [GDC-0980] (10000 nM),–,–,–,–,–,–,17.8,26.2,43.1,47.6,20.3,17.8,8.48,20.7,34.3,23.2,19,18.2,10.6,9.21,66.2
Nc1cccc2c1CN(C1CCC(=O)NC1=O)C2=O (stereo not drawn) [Lenalidomide] (1000 nM),110% and 88.9%,95.3% and 104%,103% and 100%,80% and 74.3%,110% and 96.9%,85.6% and 104%,–,–,–,–,–,–,–,–,–,–,–,–,–,–,–
Nc1cccc2c1CN(C1CCC(=O)NC1=O)C2=O (stereo not drawn) [Lenalidomide] (10000 nM),–,–,–,–,–,–,107,100,91.3,94,98.1,102,114,95.3,103,93.6,98,103,93.6,102,103
C[C@]12O[C@H](C[C@]1(O)CO)n1c3ccccc3c3c4c(c5c6ccccc6n2c5c31)CNC4=O [Lestaurtinib] (100 nM),79.6%,104%,110%,99.5%,87.8%,75.1%,–,–,–,–,–,–,–,–,–,–,–,–,–,–,–
C[C@]12O[C@H](C[C@]1(O)CO)n1c3ccccc3c3c4c(c5c6ccccc6n2c5c31)CNC4=O [Lestaurtinib] (1000 nM),–,–,–,–,–,–,35.6,46.4,44.7,56.8,61.4,28.5,91.1,71.9,54.5,49.5,30.3,32.5,61.6,79,24.3
O=C1c2c(O)ccc(O)c2C(=O)c2c(NCCNCCO)ccc(NCCNCCO)c21 [Mitoxantrone] (1000 nM),–,–,–,–,–,–,59.4,100,40.4,79.3,89.4,74.2,49,73.9,82.9,91.2,73.6,73.9,85,129,85.2
Nc1ccccc1NC(=O)c1ccc(CNc2nccc(-c3cccnc3)n2)cc1 [Mocetinostat] (10000 nM),–,–,–,–,–,–,5.88,36.7,31.8,16.9,29,54.1,18.3,24.9,21.7,32,27.1,6.94,38.2,9.77,17.1
COc1nc(N)nc2c1ncn2[C@@H]1O[C@H](CO)[C@@H](O)[C@@H]1O [Nelarabine] (10000 nM),–,–,–,–,–,–,87.1,89.5,90.1,87,90.5,86.2,143,94.9,94.3,98.6,95.8,103,91.6,81.3,117
Cc1ccc(Nc2nccc(N(C)c3ccc4c(C)n(C)nc4c3)n2)cc1S(N)(=O)=O [Pazopanib] (10000 nM),–,–,–,–,–,–,83.3,55.8,106,91.4,88.5,102,67.5,97.2,102,89.4,48.1,103,98.1,91.8,94.9
O=C(CCBr)N1CCN(C(=O)CCBr)CC1 [Pipobroman] (10000 nM),–,–,–,–,–,–,100,103,95,94.7,103,104,86.5,103,101,95.8,101,98.2,107,110,99
C[C@]12C=CC(=O)C=C1CC[C@@H]1[C@@H]2[C@@H](O)C[C@@]2(C)[C@H]1CC[C@]2(O)C(=O)CO [Prednisolone] (10000 nM),–,–,–,–,–,–,113,101,104,144,109,96.4,88.8,112,151,76.9,99,118,84.7,94.9,102
CNC(=O)c1cc(Oc2ccc(NC(=O)Nc3ccc(Cl)c(C(F)(F)F)c3)cc2)ccn1 [Sorafenib] (1000 nM),–,–,–,–,–,–,112,78.6,120,102,96,118,146,106,108,112,102,108,99.3,92.4,94.1
CCN(CC)CCNC(=O)c1c(C)[nH]c(/C=C2\C(=O)Nc3ccc(F)cc32)c1C [Sunitinib] (1000 nM),–,–,–,–,–,–,107,81.8,93.7,98.9,97.5,66.3,109,103,102,82.6,108,107,86.1,97.3,105
